Patent US20150053211A1, “Cleaning and safe mouth guard solution” (priority 2013, published 2015)

What was measured:
S. aureus [1] = assay: Kill tests using S. aureus (SIK test); type: cell-based; conditions: LAE.HCl at 200 ppm versus a product containing 27% ethanol and 1890 ppm of essential oils
Method: One of the commercial products that was analyzed not only contains a large amount of ethanol, but contains three essential biocidal oils. Specifically it contains 900 ppm of eucalyptol, 490 ppm of Thymol, and 500 ppm of D-menthol, for a total of 1890 ppm of total active constituents. In contrast our invention is N^α-lauroyl-L-arginine-ethyl ester hydrochloride, also known as LAE.HCl, which is used as a preservative in the food and cosmetic industries. • 1. N^α—lauroyl-L-arginine-ethyl ester hydrochloride, (LAE.HCl) salt is naturally derived and metabolizes readily to L-arginine, an essential amino acid, lauric acid, and very low ppm amounts of ethanol. All degradation by products are found naturally in the body and are totally harmless. • 2. LAE.HCl has undergone extensive toxicity, and safety studies, and it is approved by the FDA and EPA for food and cosmetic industries. • 3. […] The formulation of our invention includes a natural sweetener xylitol. Xylitol is known to reduce cavities as well as inhibiting the adhesion of bacteria on enamel/dentin. The selection of xylitol has the above advantages over other natural or synthetic sweeteners. (“Science Daily”, Feb. 15, 2007) • 5. Substantivity product of this invention has been proven experimentally versus the existing commercial products resulting in longer-lasting efficacy, using a zone of inhibition tests
1. […]

S. aureus [2] = assay: Substantivity test on 100% cotton fabric, zone of inhibition (ZOI); type: cell-based; conditions: 600 ppm, dried on 100% cotton fabric, saliva added to plates
Method: 2. Substantivity tests on 100% cotton fabric using S. aureus as the microorganism/zone of inhibition (ZOI).
Both samples (600 ppm LAE.HCl and control) were applied to 100% cotton fabric at the same volumes and allowed to dry at room temperature. Samples were then placed in an agar plates inoculated with S. aureus and incubated. To these plates was added saliva from the same person to determine if either sample would produce a zone inhibition. A negative control was also run at the same time. Only the product of this invention gave a positive ZOI.

SMILES: CCCCCCCCCCCC(=O)N[C@@H](CCCNC(=N)N)C(=O)OCC.Cl [LAE.HCl, N^α-lauroyl-L-arginine-ethyl ester hydrochloride]
- kill (S. aureus [1]): comparable kill
- zone of inhibition (ZOI) (S. aureus [2]): positive ZOI
